Measurements from article PMC4890880 (ACS infectious diseases, 2016).
Where two headings read alike, the source gives them in different places.

Assays:
[1] = system: Plasmodium berghei (Pb-Luc) exoerythrocytic-stage parasites; test: microbe, parasite or virus in culture
[2] = system: HepG2-A16-CD81EGFP cells; test: cells; settings: Homo sapiens; for IC50: HepG2, read-out: Tox IC50; for inhibition at 50 µM: HepG2, read-out: Tox max inhibition (%) @ 50 uM
[3] = read-out: Inhibition% @ 50 uM rep1
[4] = read-out: Inhibition% @ 50 uM rep2
[5] = read-out: PbLuc IC50, dose response, 1/3 dilutions, max conc. 10 or 50 uM, unit inferred
[6] = read-out: PbLuc max inhibition (%) @ 50 uM
[7] = HepG2, read-out: HepG2 Tox% @ 50 uM rep1
[8] = HepG2, read-out: HepG2 Tox% @ 50 uM rep2

SMILES	inhibition at 50 µM [1, 3]	inhibition at 50 µM [1, 4]	IC50 [1, 5]	inhibition at 50 µM [1, 6]	cytotoxicity at 50 µM [2, 7]	cytotoxicity at 50 µM [2, 8]	IC50 [2]	inhibition at 50 µM [2]	IC50 ([1]; read-out: PbLuc IC50)	IC50 ([1]; read-out: PbLuc IC50, dose response, unit inferred)
COc1ccc(NC(=O)C2c3ccccc3C(=O)N(CC(C)C)C2c2cccs2)cc1 (stereo not shown) [MMV000662]	102%	106%	17.5 µM	98%	37%	50%	> 50 µM	37%	–	–
FC(F)(F)c1cccc(Nc2nc3ccccc3nc2Nc2cccc(C(F)(F)F)c2)c1 [MMV665794]	103%	102%	0.667 µM	100%	100%	–	1.9 µM	102%	–	–
Cc1cc(C)c2nc(N3CCC(C(=O)NCCCN4CCC(N5CCCCC5)CC4)CC3)sc2c1 [MMV019780]	101%	101%	–	–	98%	98%	–	–	–	–
COc1ccc(C2c3ccc4ccccc4c3Oc3ncn(CCCn4ccnc4)c(=N)c32)cc1OC (stereo not shown) [MMV667490]	104%	104%	–	–	102%	–	–	–	–	–
Cc1cc(C=C2SC(=Nc3ccccc3)N(C3CCCC3)C2=O)c(C)n1-c1ccc(Cl)cc1 [MMV666688]	14%	0.839%	–	–	-4.47%	-11%	–	–	–	–
CC(C)(C)CC(C)(C)NCC(O)COc1ccc(Cl)cc1Cl (stereo not shown) [MMV396794]	101%	104%	15.1 µM	92%	99%	100%	15.1 µM	93%	–	–
c1ccc2c(NCCCCCCNc3c4c(nc5ccccc35)CCCC4)c3c(nc2c1)CCCC3 [MMV019555]	104%	104%	–	100%	100%	–	14.5 µM	101%	1.39 µM	–
CC(C)(C)c1ccc(O)c(CNC2CCCCC2)c1 [MMV665785]	99%	102%	–	–	97%	99%	–	–	–	–
O=C(NCc1ccco1)C1CCN(S(=O)(=O)c2ccc(Br)cc2)CC1 [MMV007430]	103%	105%	–	–	28%	34%	–	–	–	–
Cc1ccc(-c2cc(C(=O)Nc3ccc(S(=O)(=O)N4CCCCC4)cc3)[nH]n2)c(O)c1 [MMV665906]	-12%	30%	–	–	-10%	-5%	–	–	–	–
Cc1cc(=O)oc2c1ccc1oc(C(=O)c3ccccc3)c(C)c12 [MMV006753]	102%	103%	–	–	37%	–	–	–	–	–
Cc1sc2ncnc(Sc3nc4ccccc4[nH]3)c2c1C [MMV019266]	98%	102%	0.53 µM	101%	31%	47%	> 50 µM	28%	–	–
CCCCNc1nc(NC(C)(C)C)nc(NC(C)(C)C)n1 [MMV665864]	94%	94%	15.5 µM	89%	41%	–	> 50 µM	41%	–	–
c1ccc(C2=Nc3ccccc3N=C(c3ccccc3)c3ccccc32)cc1 [MMV007113]	94%	95%	–	40%	22%	–	> 50 µM	15%	–	> 50 µM
CCN(CC)CCn1c(=N)n(CC(O)c2ccc(Cl)c(Cl)c2)c2ccccc21 (stereo not shown) [MMV000248]	103%	105%	8.5 µM	99%	101%	102%	27.1 µM	98%	–	–
c1ccc2c(NCCc3c[nH]c4ccccc34)c3ccccc3nc2c1 [MMV006513]	98%	101%	–	–	97%	–	–	–	–	–
Cc1cc(Nc2cccc(F)c2)nc(NCc2ccccc2)n1 [MMV006319]	104%	106%	–	–	99%	102%	–	–	–	–
Cc1ccc(Nc2nc(N)c3ccccc3n2)cc1Cl [MMV011522]	100%	99%	–	–	97%	–	–	–	–	–
Cc1cc(C)c2c(c1)OCN(Cc1ccccc1Cl)C2 [MMV006558]	104%	105%	–	–	100%	100%	–	–	–	–
O=C1c2ccccc2-c2nnc(-c3ccc(Br)cc3)cc21 [MMV665934]	1.49%	29%	–	–	-9%	–	–	–	–	–
COc1ccccc1N=C1C(=O)c2ccccc2C(O)=C1N1CCCCC1 [MMV085203]	103%	105%	0.564 µM	100%	94%	97%	3.13 µM	96%	–	–
CN1CCN(c2ncnc3c2[nH]c2ccc(Cl)cc23)CC1 [MMV396704]	99%	101%	–	–	32%	–	–	–	–	–
CCOc1cc(CNC(C)C(O)c2ccccc2)cc(Cl)c1OCC (stereo not shown) [MMV396633]	101%	102%	–	–	98%	99%	–	–	–	–
O=C(CSc1nccn2nc(-c3ccccc3)cc12)Nc1cc(C(F)(F)F)ccc1Cl [MMV396678]	68%	82%	–	–	-13%	-3%	–	–	–	–
COc1ccc(NC(=O)C2c3ccccc3C(=O)N(CC(C)C)C2c2cccs2)cc1Cl (stereo not shown) [MMV000642]	104%	106%	17 µM	97%	50%	30%	> 50 µM	24%	–	–
Oc1c(CN2CCN(c3ccccc3F)CC2)cc(Br)c2cccnc12 [MMV000760]	102%	101%	1.84 µM	93%	95%	–	11.5 µM	78%	–	–
Cc1ccc(C)c(Cn2c(N3CCC(C(=O)NCc4cccs4)CC3)nc3ccccc32)c1 [MMV019741]	103%	104%	–	–	98%	–	–	–	–	–
COc1ccc(CCn2c(=N)c(C(=O)NCc3cccnc3)cc3c(=O)n4cccc(C)c4nc32)cc1 [MMV667488]	81%	83%	–	–	-0.0644%	–	–	–	–	–
CCCCCCn1c(=N)n(CC(O)COc2cccc(C)c2)c2ccccc21 (stereo not shown) [MMV000445]	102%	103%	4.75 µM	100%	99%	–	13.7 µM	99%	–	–
COc1ccc2nc(C)cc(Nc3ccccc3O)c2c1 [MMV274073]	100%	100%	–	–	59%	88%	–	–	–	–
